pIC50: −log10 of the molar value.
Key:
[1] = tested on: GTPase KRas (Homo sapiens), P01116 [G12V]; experiment: Inhibition of alexa fluor 647-labeled kinase tracer 314 binding to biotinylated-KRAS G12V mutant (unknown origin) at 100 uM measured after 60 mins by HTRF competition binding assay
[2] = molecular target: GTPase KRas (Homo sapiens, UniProt P01116, G12V); experiment: Inhibition of alexa fluor 647-labeled kinase tracer 314 binding to biotinylated-KRAS G12V mutant (unknown origin) measured after 60 mins by HTRF competition binding assay; settings: for pIC50: read-out: IC50
[3] = Inhibition of GDP-tagged biotinylated KRas G12C mutant (unknown origin)/GST-Raf (unknown origin) assessed as SOS-mediated nucleotide exchange measured after 1 hr by HRTF assay; design: species or system Homo sapiens

Compound	inhibition [1] [%]	pIC50 [2]	pIC50 [3]	IC50 ([2]; read-out: pIC50 (converted)) [µM]
C=C1/C=C/COC[C@@H](C(=O)N[C@@H](CC(C)C)C(N)=O)NC(=O)[C@H]([C@@H](C)CC)NC(=O)[C@@H]2CCCN2C(=O)CNC(=O)C1	46	4.01		
CC[C@H](C)[C@@H]1NC(=O)[C@@H]2CCCN2C(=O)[C@H](Cc2ccc(O)cc2)NC(=O)CCc2cnnn2CC[C@@H](C(=O)N[C@@H](CC(C)C)C(N)=O)NC1=O	44	< 4.00		
C=C1/C=C/COC[C@@H](C(=O)N[C@@H](CC(C)C)C(N)=O)NC(=O)[C@H]([C@@H](C)CC)NC(=O)[C@@H]2CCCN2C(=O)CNC(=O)CC1	21	< 4.00		
CC[C@H](C)[C@@H]1NC(=O)[C@@H]2CCCN2C(=O)[C@H](C)NC(=O)CCC/C=C/COC[C@@H](C(=O)N[C@@H](CC(C)C)C(N)=O)NC1=O	5	< 4.00		
CC[C@H](C)[C@@H]1NC(=O)[C@@H]2CCCN2C(=O)[C@H](Cc2ccccc2)NC(=O)CCCc2cn(nn2)C[C@@H](C(=O)N[C@@H](CC(C)C)C(N)=O)NC1=O	8	< 4.00	< 4.52	
CC[C@H](C)[C@@H]1NC(=O)[C@@H]2CCCN2C(=O)[C@H](Cc2ccc(O)cc2)NC(=O)CCCCn2cc(nn2)CSC[C@@H](C(=O)N[C@@H](CC(C)C)C(N)=O)NC1=O	0	< 4.00	< 4.52	
CC(C)C[C@H](NC(=O)[C@@H]1COCc2cnnn2CCCCC(=O)NCC(=O)N2CCC[C@H]2C(=O)N[C@@H](Cc2cccc3ccccc23)C(=O)N1)C(N)=O		5.15	5.62	
CC(C)C[C@H](NC(=O)[C@H]1CSCc2cnnn2CCCCC(=O)NCC(=O)N2CCC[C@H]2C(=O)N[C@@H](Cc2cccc3ccccc23)C(=O)N1)C(N)=O		4.96	5.60	
CC[C@H](C)[C@@H]1NC(=O)[C@@H]2CCCN2C(=O)[C@H](Cc2ccc(O)cc2)NC(=O)CCCCn2nncc2CSC[C@@H](C(=O)N[C@@H](CC(C)C)C(N)=O)NC1=O	20	< 4.00	< 4.52	
CC[C@H](C)[C@@H]1NC(=O)[C@@H]2CCCN2C(=O)[C@H](Cc2ccccc2)NC(=O)CCCc2cn(nn2)CC[C@@H](C(=O)N[C@@H](CC(C)C)C(N)=O)NC1=O	9	< 4.00	< 4.52	
CC[C@H](C)[C@@H]1NC(=O)[C@@H]2CCCN2C(=O)CNC(=O)CCCc2cnnn2C[C@@H](C(=O)N[C@@H](CC(C)C)C(N)=O)NC1=O	16	< 4.00		
CC(C)C[C@H](NC(=O)[C@@H]1COCc2cnnn2CCCC(=O)NCC(=O)N2CCC[C@H]2C(=O)N[C@@H](Cc2cccc3ccccc23)C(=O)N1)C(N)=O		5.00	5.39	
CC(C)C[C@H](NC(=O)[C@@H]1COCc2cnnn2CCCCC(=O)NCC(=O)N2CCCC[C@H]2C(=O)N[C@@H](Cc2cccc3ccccc23)C(=O)N1)C(N)=O		5.11	5.62	
CC(C)C[C@H](NC(=O)[C@@H]1COCc2cnnn2CCCCC(=O)NCC(=O)N2CCOC[C@H]2C(=O)N[C@@H](Cc2cccc3ccccc23)C(=O)N1)C(N)=O		5.19	5.30	
CC[C@H](C)[C@@H]1NC(=O)[C@@H]2CCCN2C(=O)CNC(=O)CCCCn2nncc2COC[C@@H](C(=O)N[C@@H](CC(C)C)C(N)=O)NC1=O	48	4.00		
C=C1/C=C/CCCC(=O)N[C@@H](C)C(=O)N2CCC[C@H]2C(=O)N[C@@H]([C@@H](C)CC)C(=O)N[C@H](C(=O)N[C@@H](CC(C)C)C(N)=O)CSC1	28	< 4.00		
CC(C)C[C@H](NC(=O)[C@@H]1COCc2cnnn2CCC(=O)NCC(=O)N2CCC[C@H]2C(=O)N[C@@H](Cc2cccc3ccccc23)C(=O)N1)C(N)=O		5.15	5.44	
CC[C@H](C)[C@@H]1NC(=O)[C@@H]2CCCN2C(=O)[C@H](Cc2ccccc2)NC(=O)CCCCn2nncc2COC[C@@H](C(=O)N[C@@H](CC(C)C)C(N)=O)NC1=O	38	< 4.00		
CC[C@H](C)[C@@H]1NC(=O)[C@@H]2CCCN2C(=O)CNC(=O)CCCC#CC#CCOC[C@@H](C(=O)N[C@@H](CC(C)C)C(N)=O)NC1=O	0	< 4.00		
CC[C@H](C)[C@@H]1NC(=O)[C@@H]2CCCN2C(=O)[C@H](C)NC(=O)CCCC#CC#CCOC[C@@H](C(=O)N[C@@H](CC(C)C)C(N)=O)NC1=O	0	< 4.00		
CC[C@H](C)[C@@H]1NC(=O)[C@@H]2CCCN2C(=O)CNC(=O)CCCc2cnnn2CC[C@@H](C(=O)N[C@@H](CC(C)C)C(N)=O)NC1=O	22	< 4.00		
CC[C@H](C)[C@@H]1NC(=O)[C@@H]2CCCN2C(=O)CNC(=O)CCCn2nncc2COC[C@@H](C(=O)N[C@@H](CC(C)C)C(N)=O)NC1=O	39	< 4.00		
CC[C@H](C)[C@@H]1NC(=O)[C@@H]2CCCN2C(=O)[C@H](Cc2ccc(O)cc2)NC(=O)CCCCn2nncc2COC[C@@H](C(=O)N[C@@H](CC(C)C)C(N)=O)NC1=O	28	< 4.00	< 4.52	
CC[C@H](C)[C@@H]1NC(=O)[C@@H]2CCCN2C(=O)[C@H](C)NC(=O)CCCCn2nncc2COC[C@@H](C(=O)N[C@@H](CC(C)C)C(N)=O)NC1=O	30	< 4.00		
CC[C@H](C)[C@@H]1NC(=O)[C@@H]2CCCN2C(=O)[C@H](C)NC(=O)c2ccccc2/C=C/COC[C@@H](C(=O)N[C@@H](CC(C)C)C(N)=O)NC1=O	25	< 4.00		
CC(C)C[C@H](NC(=O)[C@@H]1COCc2cnnn2CC(=O)NCC(=O)N2CCC[C@H]2C(=O)N[C@@H](Cc2cccc3ccccc23)C(=O)N1)C(N)=O		5.02	5.49	
CC[C@H](C)[C@@H]1NC(=O)[C@@H]2CCCN2C(=O)CNC(=O)CCCc2cn(nn2)CC[C@@H](C(=O)N[C@@H](CC(C)C)C(N)=O)NC1=O	6	< 4.00		
CC[C@H](C)[C@@H]1NC(=O)[C@@H]2CCCN2C(=O)[C@H](Cc2ccc(O)cc2)NC(=O)CCCCn2cc(nn2)COC[C@@H](C(=O)N[C@@H](CC(C)C)C(N)=O)NC1=O	22	< 4.00	< 4.52	
CC[C@@H](C)[C@@H]1NC(=O)[C@@H]2CCCN2C(=O)[C@H](Cc2ccc(O)cc2)NC(=O)[C@@H](NC(=O)[C@H](CC(=O)O)NC(C)=O)CCCn2nncc2COC[C@@H](C(=O)N[C@@H](CC(C)C)C(=O)N[C@@H](CC(C)C)C(=O)N2CCC[C@H]2C(N)=O)NC1=O		< 4.05		> 79.4
